Reference: patent publication US8604060B2, “Use of antagonists of the CBI receptor for the manufacture of a composition useful for the treatment of hepatic diseases” (INSERM, priority 2004, dated 2013)
pIC50: −log10 of the molar value.

Legend:
[1] = test system: CB1-/- cells (mouse hepatic myofibroblasts); test: DNA synthesis ([3H] thymidine incorporation) in hepatic myofibroblasts from CB1-/- mice stimulated with PDGF-BB; type: cell-based; settings: 20 ng/ml PDGF-BB, 30 h
Description: (§1) FIG. 3: Plots showing the effect of increasing amounts of CB1 antagonist SR141716 on DNA synthesis in human hepatic myofibroblast (panel A) and on wild type mice (shown as WT) and CB1 deficient mice (shown as CB1KO) (panel B). The DNA synthesis is expressed as a percentage of DNA synthesis in cells treated with the vehicle of SR 141716 and plotted against increasing concentrations of SR 141716 in nM. Human hepatic myofibroblast cells were stimulated for 30 h with varying concentrations of the CB1 receptor antagonist SR 141716, in the presence of 20 ng/ml of PDGF-BB [^3H] […] Error bars are shown on the plot. […] Thymidine incorporation into DNA was measured as mean±SEM, from 3-6 experiments obtained from cells isolated from livers of 3 WT and 3 CB1 -/- mice and are expressed as percent of control. […]
(§2) DNA synthesis was measured in triplicate wells by incorporation of [3H] thymidine, as previously described (Tao, J., et al., J Biol Chem, 1999. 274(34): p. 23761-23769). […]
(§3) The cell culture was performed as described in example 1 herein. Cell culture of both human and mouse hepatic myofibroblasts were exposed to increasing doses of CB1 receptor antagonist SR141716 and the DNA synthesis of hepatic myofibroblasts was measured.

[2] = test system: human hepatic myofibroblasts; test: DNA synthesis ([3H] thymidine incorporation) in human hepatic myofibroblasts stimulated with PDGF-BB; type: cell-based; settings: 20 ng/ml PDGF-BB, 30 h, read-out: half maximal inhibition of DNA synthesis elicited by PDGF-BB
Description: as §1, §2, §3

CD1 mice = test: Mortality induced by chronic carbon tetrachloride intoxication (experimental model of liver fibrosis) in mice; type: in vivo; settings: 10 mg/kg daily intraperitoneal
Excerpt: FIG. 4: Plot showing the effect of SR141716 or its vehicle on the mortality induced by carbon tetrachloride in mice. The survival rate of mice treated with CC14 either with SR141716 (dotted lines) or with no treatment (solid lines showing the administration of vehicle only without CB1 antagonist) is shown against time in days. Time of administration of CC14 is shown by the arrow.
The antifibrogenic potential of the CB1 antagonist SR 141716 in an experimental model of liver fibrosis, induced by chronic intoxication with carbon tetrachloride was evaluated.
SR 141716 (10 mg/kg body weight) was dissolved freshly before use, in a vehicle solution (2 drops of Tween 80 in 10 ml of PBS containing 10% dimethylsulfoxide and 5% ethanol) and sonicated.
CD1 mice were obtained from Janvier (France). All experiments were performed using accepted ethical guidelines. 36 males, aged 10-12 weeks, were used and animals were divided into the following groups: vehicle-treated, olive oil group (n=3); vehicle-treated, CC14 group (n=14); SR 141716-treated olive oil group (n=3); SR 141716A-treated, CC14 group (n=16). Animals were housed in temperature and humidity controlled rooms, kept on a 12-h light/dark cycle and provided unrestricted amounts of food and water, unless otherwise specified. […]

[3] = test system: murine myofibroblasts isolated from wild type mice; test: DNA synthesis ([3H] thymidine incorporation) in murine hepatic myofibroblasts from wild type mice stimulated with PDGF-BB; type: cell-based, mouse; settings: 20 ng/ml PDGF-BB, 30 h
Description: as §1, §2, §3

Cc1c(C(=O)NN2CCCCC2)nn(-c2ccc(Cl)cc2Cl)c1-c1ccc(Cl)cc1 [SR141716, N-piperidino-5-(4-chlorophenyl)-1-(2,4-dichlorophenyl)-4-methylpyrazole-3-carboxamide]
proliferation (DNA synthesis elicited by PDGF-BB) [1]: only marginally affected | pIC50 [2]: 6.40 to 6.52 | survival rate at one month (CD1 mice; CC14 0.5 ml/kg IP twice a week for one month, started 7 days before CC14): 83% | deaths in sham animals (CD1 mice; olive oil (sham) mice): no deaths | DNA synthesis elicited by PDGF-BB [3]: inhibited
